Measurements taken from PMC6979384, “Characterization of the plant homeodomain (PHD) reader family for their histone tail interactions” (Epigenetics & Chromatin, 2020).

Key:
Assay in all cases: Histone peptide microarray
Format in all cases: binding, human
AIRE (PP) = conditions: GST-tagged AIRE (PP); histone peptide array; arrays performed twice, n of 4
Outline: (§1)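 Recombinant GST-PHD protein at 0.5 μM; 293-member modified histone peptide array; signals averaged from four repeats ± SD.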

BAZ2B = conditions: GST-tagged BAZ2B; histone peptide array; arrays performed twice, n of 4
Outline: as §1

BPTF (PB) = conditions: GST-tagged BPTF (PB = PHD + Bromodomain); histone peptide array; arrays performed twice, n of 4
Outline: as §1

CHD4 (PPCC) = conditions: GST-tagged CHD4 (PPCC = Dual PHD + Dual Chromodomain); histone peptide array; arrays performed twice, n of 4
Outline: as §1

CHD5 (PCC) = conditions: GST-tagged CHD5 (PCC = PHD + Dual Chromodomain); histone peptide array; arrays performed twice, n of 4
Outline: as §1

CHD5 (PPCC) = conditions: GST-tagged CHD5 (PPCC = Dual PHD + Dual Chromodomain); histone peptide array; arrays performed twice, n of 4
Outline: as §1

DIDO1 = conditions: GST-tagged DIDO1; histone peptide array; arrays performed twice, n of 4
Outline: as §1

DPF2 (PPC2W2) = conditions: GST-tagged DPF2 (PPC2W2 = Dual PHD + C2W2-type Zn-finger); histone peptide array; arrays performed twice, n of 4
Outline: as §1

ING1 = conditions: GST-tagged ING1; histone peptide array; arrays performed twice, n of 4
Outline: as §1

ING2 = conditions: GST-tagged ING2; histone peptide array; arrays performed twice, n of 4
Outline: as §1

ING3 = conditions: GST-tagged ING3; histone peptide array; arrays performed twice, n of 4
Outline: as §1

ING4 = conditions: GST-tagged ING4; histone peptide array; arrays performed twice, n of 4
Outline: as §1

ING5 = conditions: GST-tagged ING5; histone peptide array; arrays performed twice, n of 4
Outline: as §1

KDM4C (TTP) = conditions: GST-tagged KDM4C (TTP = Tandem Tudor domain + PHD); histone peptide array; arrays performed twice, n of 4
Outline: as §1

KDM5A (1) = conditions: GST-tagged KDM5A (1); histone peptide array; arrays performed twice, n of 4
Outline: as §1

KDM5A (3) = conditions: GST-tagged KDM5A (3); histone peptide array; arrays performed twice, n of 4
Outline: as §1

KDM5B (1) = conditions: GST-tagged KDM5B (1); histone peptide array; arrays performed twice, n of 4
Outline: as §1

KDM5B (3) = conditions: GST-tagged KDM5B (3); histone peptide array; arrays performed twice, n of 4
Outline: as §1

KDM7A = conditions: GST-tagged KDM7A; histone peptide array; arrays performed twice, n of 4
Outline: as §1

MLL5 = conditions: GST-tagged MLL5; histone peptide array; arrays performed twice, n of 4
Outline: as §1

MORC3 (CW) = conditions: GST-tagged MORC3 (CW = CW-type Zn-finger); histone peptide array; arrays performed twice, n of 4
Outline: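 Each reader, produced as a GST fusion and purified, was tested at 0.5 μM on synthetic histone peptides (293 in total) carrying single or combinatorial marks. Intensities averaged over four replicates.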

PHF13 = conditions: GST-tagged PHF13; histone peptide array; arrays performed twice, n of 4
Outline: as §1

PHF21A = conditions: GST-tagged PHF21A; histone peptide array; arrays performed twice, n of 4
Outline: as §1

PHF23 = conditions: GST-tagged PHF23; histone peptide array; arrays performed twice, n of 4
Outline: as §1

PHF2 = conditions: GST-tagged PHF2; histone peptide array; arrays performed twice, n of 4
Outline: as §1

PHF8 = conditions: GST-tagged PHF8; histone peptide array; arrays performed twice, n of 4
Outline: as §1

PHRF1 (RP) = conditions: GST-tagged PHRF1 (RP); histone peptide array; arrays performed twice, n of 4
Outline: as §1

RAG2 = conditions: GST-tagged RAG2; histone peptide array; arrays performed twice, n of 4
Outline: as §1

SP140L = conditions: GST-tagged SP140L; histone peptide array; arrays performed twice, n of 4
Outline: as §1

TAF3 = conditions: GST-tagged TAF3; histone peptide array; arrays performed twice, n of 4
Outline: as §1

TRIM66 (PB) = conditions: GST-tagged TRIM66 (PB = PHD + Bromodomain); histone peptide array; arrays performed twice, n of 4
Outline: as §1

Substance | Array Heatmap signal, AIRE (PP) (AIRE (PP)) | Array Heatmap signal, BAZ2B (BAZ2B) | Array Heatmap signal, BPTF (PB) (BPTF (PB)) | Array Heatmap signal, CHD4 (PPCC) (CHD4 (PPCC)) | Array Heatmap signal, CHD5 (PCC) (CHD5 (PCC)) | Array Heatmap signal, CHD5 (PPCC) (CHD5 (PPCC)) | Array Heatmap signal, DIDO1 (DIDO1) | Array Heatmap signal, DPF2 (PPC2W2) (DPF2 (PPC2W2)) | Array Heatmap signal, ING1 (ING1) | Array Heatmap signal, ING2 (ING2) | Array Heatmap signal, ING3 (ING3) | Array Heatmap signal, ING4 (ING4) | Array Heatmap signal, ING5 (ING5) | Array Heatmap signal, KDM4C (TTP) (KDM4C (TTP)) | Array Heatmap signal, KDM5A (1) (KDM5A (1)) | Array Heatmap signal, KDM5A (3) (KDM5A (3)) | Array Heatmap signal, KDM5B (1) (KDM5B (1)) | Array Heatmap signal, KDM5B (3) (KDM5B (3)) | Array Heatmap signal, KDM7A (KDM7A) | Array Heatmap signal, MLL5 (MLL5) | other results
H3R2me1 + K4me3: H3 1-20 | 0.5251 | 0.4816 | 0.4045 | 0.5344 | 0.789 | 0.5498 | 0.7532 | 0.645 | 0.6223 | 0.6934 | 0.5249 | 0.4768 | 0.3615 | 0.6626 | 0.4891 | 0.7567 | 0.7101 | 0.6417 | 0.6442 | 0.6848 | Array Heatmap signal, MORC3 (CW) (MORC3 (CW)): 0.559; Array Heatmap signal, PHF13 (PHF13): 0.6851; Array Heatmap signal, PHF21A (PHF21A): 0.4726; Array Heatmap signal, PHF23 (PHF23): 0.6587; Array Heatmap signal, PHF2 (PHF2): 0.6232; Array Heatmap signal, PHF8 (PHF8): 0.5511; Array Heatmap signal, PHRF1 (RP) (PHRF1 (RP)): 0.4461; Array Heatmap signal, RAG2 (RAG2): 0.5131; Array Heatmap signal, SP140L (SP140L): 0.3558; Array Heatmap signal, TAF3 (TAF3): 0.4375; Array Heatmap signal, TRIM66 (PB) (TRIM66 (PB)): 0.573
H3R2me2a + K4ac + K9ac + K14ac + K18ac: H3 1-20 | 0.481 | 0.5184 | 0.3551 | 0.5562 | 0.8359 | 0.5571 | 0.6585 | 0.6307 | 0.488 | 0.5976 | 0.5009 | 0.4485 | 0.3422 | 0.4988 | 0.4917 | 0.405 | 0.6453 | 0.4924 | 0.4047 | 0.5333 | Array Heatmap signal, MORC3 (CW) (MORC3 (CW)): 0.3697; Array Heatmap signal, PHF13 (PHF13): 0.6029; Array Heatmap signal, PHF21A (PHF21A): 0.4733; Array Heatmap signal, PHF23 (PHF23): 0.5405; Array Heatmap signal, PHF2 (PHF2): 0.4783; Array Heatmap signal, PHF8 (PHF8): 0.3535; Array Heatmap signal, PHRF1 (RP) (PHRF1 (RP)): 0.4078; Array Heatmap signal, RAG2 (RAG2): 0.259; Array Heatmap signal, SP140L (SP140L): 0.3281; Array Heatmap signal, TAF3 (TAF3): 0.2624; Array Heatmap signal, TRIM66 (PB) (TRIM66 (PB)): 0.5934
